Experimental data from patent US20250195521A1 (Revolution Medicines, Inc., priority 2020, published 2025).
Where two headings read alike, the source gives them in different places.

Key:
KRAS G12C = KRAS G12C (Homo sapiens (Human), UniProt P01116+P62937, G12C); test: Ras-Raf disruption/FRET/MOA assay (BRAF RBD, Cyclophilin A); assay type: biochemical; settings: read-out: KRAS G12C FRET IC50
Summary of the method: (§1)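 His6-K-Ras-GMPPNP (12.5 nM), GST-BRAF RBD (50 nM) and tagless Cyclophilin A (25 μM) were combined in 25 mM HEPES pH 7.3 with 100 mM NaCl, 5 mM MgCl2, 0.1% BSA and 0.002% Tween20, with compound as a 10-point 3-fold series from 30 μM final, then incubated 3 h at 25° C.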

KRAS G13C = KRAS G13C (Homo sapiens (Human), UniProt P01116+P62937, G13C); test: as above; assay type: biochemical; settings: read-out: KRAS G13C FRET IC50
Chain of KRAS G13C (P01116 other isoform, or with tags, fused parts or gaps G13C): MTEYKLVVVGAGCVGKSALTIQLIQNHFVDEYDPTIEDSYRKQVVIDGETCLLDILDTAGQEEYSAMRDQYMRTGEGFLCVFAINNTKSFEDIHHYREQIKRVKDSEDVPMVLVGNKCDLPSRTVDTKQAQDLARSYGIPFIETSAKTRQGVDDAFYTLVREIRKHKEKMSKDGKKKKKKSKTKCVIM
Chain of KRAS G13C (P62937 whole entry): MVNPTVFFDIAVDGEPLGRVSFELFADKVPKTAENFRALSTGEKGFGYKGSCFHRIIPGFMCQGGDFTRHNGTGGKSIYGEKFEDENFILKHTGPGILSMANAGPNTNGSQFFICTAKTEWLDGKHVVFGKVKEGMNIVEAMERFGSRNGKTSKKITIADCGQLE
Summary of the method: as §1

KRAS G12V = KRAS G12V (Homo sapiens (Human), UniProt P01116+P62937, G12V); test: as above; assay type: biochemical; settings: read-out: KRAS G12V FRET IC50
Chain of KRAS G12V (P01116 other isoform, or with tags, fused parts or gaps G12V): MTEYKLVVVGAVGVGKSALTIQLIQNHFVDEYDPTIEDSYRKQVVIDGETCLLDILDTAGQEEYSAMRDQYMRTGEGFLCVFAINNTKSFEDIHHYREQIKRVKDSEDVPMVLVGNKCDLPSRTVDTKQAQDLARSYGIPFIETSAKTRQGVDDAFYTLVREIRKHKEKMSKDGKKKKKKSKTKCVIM
Chain of KRAS G12V (P62937 whole entry): as the sequence (P62937 whole entry) above
Summary of the method: as §1

NRAS G12C = NRAS G12C (Homo sapiens (Human), UniProt P01111+P62937, G12C); test: as above; assay type: biochemical; settings: read-out: NRAS G12C FRET data IC50
Chain of NRAS G12C (P01111 whole entry G12C): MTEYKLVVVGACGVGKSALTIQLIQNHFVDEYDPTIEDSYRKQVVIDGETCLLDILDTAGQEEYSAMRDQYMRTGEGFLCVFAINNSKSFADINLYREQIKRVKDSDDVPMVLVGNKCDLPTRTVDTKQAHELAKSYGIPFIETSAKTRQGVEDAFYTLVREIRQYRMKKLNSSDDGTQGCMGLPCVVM
Chain of NRAS G12C (P62937 whole entry): as the sequence (P62937 whole entry) above
Summary of the method: (§2)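 TR-FRET readout: anti-His Eu-W1024 (10 nM) and anti-GST allophycocyanin (50 nM) added after 3 h, 25° C compound incubation, then 1.5 h more. Decrease in FRET ratio versus DMSO wells marks Ras:RAF disruption; IC50 reported.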

KRAS G13D = KRAS G13D (Homo sapiens (Human), UniProt P01116+P62937, G13D); test: as above; assay type: biochemical; settings: read-out: KRAS G13D FRET data IC50
Chain of KRAS G13D (P01116 other isoform, or with tags, fused parts or gaps G13D): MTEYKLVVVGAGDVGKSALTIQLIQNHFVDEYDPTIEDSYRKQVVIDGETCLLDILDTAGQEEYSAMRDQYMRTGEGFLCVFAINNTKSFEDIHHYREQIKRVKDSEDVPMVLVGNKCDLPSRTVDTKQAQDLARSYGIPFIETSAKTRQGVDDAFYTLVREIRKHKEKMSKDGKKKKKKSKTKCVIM
Chain of KRAS G13D (P62937 whole entry): as the sequence (P62937 whole entry) above
Summary of the method: as §1

NRAS WT = NRAS WT (Homo sapiens (Human), UniProt P01111+P62937); test: as above; assay type: biochemical
Chain of NRAS WT (P01111 whole entry): as the sequence (P01111 whole entry G12C) above, with C12G counted along it
Chain of NRAS WT (P62937 whole entry): as the sequence (P62937 whole entry) above
Summary of the method: as §2

KRAS G12S = KRAS G12S (Homo sapiens (Human), UniProt P01116+P62937, G12S); test: as above; assay type: biochemical; settings: read-out: KRAS G12S FRET IC50
Chain of KRAS G12S (P01116 other isoform, or with tags, fused parts or gaps G12S): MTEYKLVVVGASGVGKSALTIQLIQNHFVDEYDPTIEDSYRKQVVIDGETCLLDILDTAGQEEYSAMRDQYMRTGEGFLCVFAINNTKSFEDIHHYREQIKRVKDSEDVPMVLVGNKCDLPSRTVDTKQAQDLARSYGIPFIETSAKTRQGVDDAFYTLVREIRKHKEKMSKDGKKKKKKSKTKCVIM
Chain of KRAS G12S (P62937 whole entry): as the sequence (P62937 whole entry) above
Summary of the method: as §1

NRAS Q61R = NRAS Q61R (Homo sapiens (Human), UniProt P01111+P62937, Q61R); test: as above; assay type: biochemical
Chain of NRAS Q61R (P01111 whole entry Q61R): as the sequence (P01111 whole entry G12C) above, with C12G, Q61R counted along it
Chain of NRAS Q61R (P62937 whole entry): as the sequence (P62937 whole entry) above
Summary of the method: as §2

KRAS G12D = KRAS G12D (Homo sapiens (Human), UniProt P01116+P62937, G12D); test: as above; assay type: biochemical; settings: read-out: KRAS G12D FRET IC50
Chain of KRAS G12D (P01116 other isoform, or with tags, fused parts or gaps G12D): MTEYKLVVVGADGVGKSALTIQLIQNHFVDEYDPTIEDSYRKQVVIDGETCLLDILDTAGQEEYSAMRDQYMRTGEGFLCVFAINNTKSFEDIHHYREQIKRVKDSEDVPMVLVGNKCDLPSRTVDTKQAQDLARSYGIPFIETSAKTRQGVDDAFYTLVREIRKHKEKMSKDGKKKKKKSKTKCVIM
Chain of KRAS G12D (P62937 whole entry): as the sequence (P62937 whole entry) above
Summary of the method: as §1

KRAS WT = KRAS WT (Homo sapiens (Human), UniProt P01116+P62937); test: as above; assay type: biochemical; settings: read-out: KRAS WT FRET data IC50
Chain of KRAS WT (P01116 other isoform, or with tags, fused parts or gaps): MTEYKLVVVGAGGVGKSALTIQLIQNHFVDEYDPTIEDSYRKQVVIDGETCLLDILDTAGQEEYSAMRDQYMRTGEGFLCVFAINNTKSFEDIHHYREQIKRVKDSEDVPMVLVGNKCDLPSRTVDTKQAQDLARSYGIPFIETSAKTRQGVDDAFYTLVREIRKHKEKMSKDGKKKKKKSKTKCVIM
Chain of KRAS WT (P62937 whole entry): as the sequence (P62937 whole entry) above
Summary of the method: as §1

[1] = system: K-Ras G12C (NCI-H358 cells); test: Potency assay: pERK in NCI-H358 cells; assay type: cell-based, human; settings: Homo sapiens; NCI-H358 cells, 4 hours; read-out: pERK EC50 (H358 KRAS G12C)
Summary of the method: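 Cells plated the day before were exposed for 4 h at 37° C, 5% CO2 to a 10-point, 3-fold DMSO dilution series (10 mM top stock), in duplicate. Phospho-ERK was read by AlphaLISA SureFire Ultra or by In-Cell Western with DRAQ5 DNA stain, and IC50 came from a 4-parameter sigmoidal fit.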

[2] = system: NCI-H358 cells (K-Ras G12C); test: CellTiter-Glo cell viability, NCI-H358; assay type: cell-based, human; settings: K-Ras G12C, 5-day treatment, read-out: H358 Cell Viability IC50
Summary of the method: (§3)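 Five-day treatment of K-Ras mutant cells with directly dispensed compound; ATP-based luminescence endpoint. Percent of DMSO signal fit to four-parameter logistic curve.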

[3] = system: Capan-1 cells (K-Ras G12V); test: CellTiter-Glo cell viability, Capan-1; assay type: cell-based, human; settings: K-Ras G12V, 5-day treatment, read-out: Capan-1 Cell Viability IC50
Summary of the method: as §3

KRAS Q61H = KRAS Q61H (Homo sapiens (Human), UniProt P01116+P62937, Q61H); test: Ras-Raf disruption/FRET/MOA assay (BRAF RBD, Cyclophilin A); assay type: biochemical
Chain of KRAS Q61H (P01116 other isoform, or with tags, fused parts or gaps Q61H): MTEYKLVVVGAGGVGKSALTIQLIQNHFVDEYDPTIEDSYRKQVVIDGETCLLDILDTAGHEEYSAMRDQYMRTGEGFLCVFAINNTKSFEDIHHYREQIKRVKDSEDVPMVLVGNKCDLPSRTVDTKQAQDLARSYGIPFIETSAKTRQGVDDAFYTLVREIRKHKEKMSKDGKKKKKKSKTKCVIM
Chain of KRAS Q61H (P62937 whole entry): as the sequence (P62937 whole entry) above
Summary of the method: as §1

[4] = target: K-Ras G12C(GMP-PNP) binding to BRAF RBD (Homo sapiens (Human), UniProt P01116+P62937, G12C); test: Disruption of BRAF RBD interaction with K-Ras (FRET / MOA assay), K-Ras G12C; assay type: biochemical; settings: read-out: KRAS G12C FRET IC50
Chain of K-Ras G12C(GMP-PNP) binding to BRAF RBD (P01116 other isoform, or with tags, fused parts or gaps G12C): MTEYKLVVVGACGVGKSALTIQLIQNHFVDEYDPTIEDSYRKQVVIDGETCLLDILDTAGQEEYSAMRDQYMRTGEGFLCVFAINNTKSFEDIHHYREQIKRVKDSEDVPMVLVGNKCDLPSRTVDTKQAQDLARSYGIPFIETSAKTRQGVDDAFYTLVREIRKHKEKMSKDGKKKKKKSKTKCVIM
Chain of K-Ras G12C(GMP-PNP) binding to BRAF RBD (P62937 whole entry): as the sequence (P62937 whole entry) above
Summary of the method: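 First, test compounds in a 10-point 3-fold series (30 μM final top) were incubated for 3 hours at 25° C with nucleotide-loaded Ras, cyclophilin A and a BRAF RBD construct. Next, Eu anti-His and allophycocyanin anti-GST detection reagents were added for 1.5 hours. Finally, IC50s were derived from loss of TR-FRET signal against DMSO.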

NCI-H358 (K-Ras G12C) = test: CellTiter-Glo cell viability assay, NCI-H358; assay type: cell-based, human; settings: Homo sapiens, NCI-H358, 120 h, 5-day treatment; read-out: H358 Cell Viability assay data (K-Ras G12C, IC50)
Summary of the method: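 Five-day compound treatment of NCI-H358 cells, then CellTiter-Glo luminescence, percent of DMSO, four-parameter logistic fit.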

Chain of KRAS G12C (P01116-2 other isoform, or with tags, fused parts or gaps G12C): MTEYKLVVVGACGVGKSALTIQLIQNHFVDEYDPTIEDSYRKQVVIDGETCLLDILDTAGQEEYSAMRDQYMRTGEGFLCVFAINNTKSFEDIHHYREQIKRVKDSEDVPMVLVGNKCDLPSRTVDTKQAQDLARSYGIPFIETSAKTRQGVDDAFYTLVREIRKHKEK
Chain of KRAS G12C (P62937 whole entry): as the sequence (P62937 whole entry) above

CCn1c(-c2cccnc2[C@H](C)OC)c2c3cc(ccc31)-c1csc(n1)C[C@H](NC(=O)[C@H](C(C)C)N(C)C(=O)N1CC3(CN(C)C3)C1)C(=O)N1CCC[C@H](N1)C(=O)OCC(C)(C)C2 [Compound A268]
IC50 (KRAS G12C): 100 to 1000 nM
IC50 (KRAS G13C): 100 to 1000 nM
IC50 (KRAS G12V): 100 to 1000 nM
IC50 (NRAS G12C): 10 to 100 nM
IC50 (KRAS G13D): 100 to 1000 nM
IC50 (NRAS WT): 100 to 1000 nM
IC50 (KRAS G12S): 100 to 1000 nM
IC50 (NRAS Q61R): 100 to 1000 nM
IC50 (KRAS G12D): 100 to 1000 nM
IC50 (KRAS WT): 100 to 1000 nM
EC50 [1]: < 5000 nM
IC50 ([2]; Homo sapiens, NCI-H358, 120 h): 100 to 1000 nM
IC50 ([3]; Homo sapiens, CAPAN-1, 120 h): 100 to 1000 nM

CCn1c(-c2cccnc2[C@H](C)OC)c2c3cc(ccc31)-c1csc(n1)C[C@H](NC(=O)[C@H](C(C)C)N(C)C(=O)N1CC(C(C)(C)O)C1)C(=O)N1CCC[C@H](N1)C(=O)OCC(C)(C)C2 [Compound A289]
IC50 (KRAS G12C): 10 to 100 nM
IC50 (KRAS G13C): 100 to 1000 nM
IC50 (KRAS G12V): 100 to 1000 nM
IC50 (KRAS Q61H): 10 to 100 nM
IC50 (NRAS G12C): 10 to 100 nM
IC50 (KRAS G13D): 100 to 1000 nM
IC50 (NRAS WT): 100 to 1000 nM
IC50 (KRAS G12S): 100 to 1000 nM
IC50 (NRAS Q61R): 100 to 1000 nM
IC50 (KRAS G12D): 100 to 1000 nM
IC50 (KRAS WT): 100 to 1000 nM
IC50 ([3]; Homo sapiens, CAPAN-1, 120 h): 10 to 100 nM

CCn1c(-c2cccnc2[C@H](C)OC)c2c3cc(ccc31)-c1csc(n1)C[C@H](NC(=O)[C@H](C(C)C)N(C)C(=O)N1C[C@H]3COC[C@H]3C1)C(=O)N1CCC[C@H](N1)C(=O)OCC(C)(C)C2 [Compound A312]
IC50 (KRAS G12C): 10 to 100 nM
IC50 (KRAS G13C): 100 to 1000 nM
IC50 (KRAS G12V): 100 to 1000 nM
IC50 (KRAS Q61H): 10 to 100 nM
IC50 (NRAS G12C): 10 to 100 nM
IC50 (KRAS G13D): 100 to 1000 nM
IC50 (NRAS WT): 10 to 100 nM
IC50 (KRAS G12S): 10 to 100 nM
IC50 (KRAS G12D): 100 to 1000 nM
IC50 (KRAS WT): 10 to 100 nM
IC50 ([2]; Homo sapiens, NCI-H358, 120 h): 10 to 100 nM
IC50 ([3]; Homo sapiens, CAPAN-1, 120 h): 10 to 100 nM
IC50 [4]: > 10000 nM
IC50 (NCI-H358 (K-Ras G12C)): > 10000 nM

CCn1c(-c2cccnc2[C@H](C)OC)c2c3cc(ccc31)-c1csc(n1)C[C@H](NC(=O)[C@H](C(C)C)N(C)C(=O)N1CC(C(=O)O)C1)C(=O)N1CCC[C@H](N1)C(=O)OCC(C)(C)C2 [Compound A344]
IC50 (KRAS G12C): 100 to 1000 nM
IC50 (KRAS G13C): 100 to 1000 nM
IC50 (KRAS G12V): 100 to 1000 nM
IC50 (KRAS Q61H): 100 to 1000 nM
IC50 (NRAS G12C): 100 to 1000 nM
IC50 (KRAS G13D): 1000 to 10000 nM
IC50 (NRAS WT): 100 to 1000 nM
IC50 (KRAS G12S): 100 to 1000 nM
IC50 (NRAS Q61R): 100 to 1000 nM
IC50 (KRAS G12D): 1000 to 10000 nM
IC50 (KRAS WT): 100 to 1000 nM
EC50 [1]: < 5000 nM
IC50 ([3]; Homo sapiens, CAPAN-1, 120 h): > 10000 nM

CCn1c(-c2cccnc2[C@H](C)OC)c2c3cc(ccc31)-c1csc(n1)C[C@H](NC(=O)[C@H](C(C)C)N(C)C(=O)N1CC(O)C1)C(=O)N1CCC[C@H](N1)C(=O)OCC(C)(C)C2 [Compound A358]
IC50 (KRAS G12C): 10 to 100 nM
IC50 (KRAS G13C): 100 to 1000 nM
IC50 (KRAS G12V): 100 to 1000 nM
IC50 (KRAS Q61H): 10 to 100 nM
IC50 (NRAS G12C): 10 to 100 nM
IC50 (KRAS G13D): 100 to 1000 nM
IC50 (NRAS WT): 100 to 1000 nM
IC50 (KRAS G12S): 100 to 1000 nM
IC50 (NRAS Q61R): 100 to 1000 nM
IC50 (KRAS G12D): 100 to 1000 nM
IC50 (KRAS WT): 100 to 1000 nM
EC50 [1]: < 5000 nM
IC50 ([3]; Homo sapiens, CAPAN-1, 120 h): 10 to 100 nM

CCn1c(-c2cccnc2[C@H](C)OC)c2c3cc(ccc31)-c1csc(n1)C[C@H](NC(=O)N1CCC1)C(=O)N1CCC[C@H](N1)C(=O)OCC(C)(C)C2 [Compound A369]
IC50 (KRAS G12C): 100 to 1000 nM
IC50 (KRAS G13C): 100 to 1000 nM
IC50 (KRAS G12V): 100 to 1000 nM
IC50 (KRAS Q61H): 100 to 1000 nM
IC50 (KRAS G13D): 100 to 1000 nM
IC50 (KRAS G12S): 100 to 1000 nM
IC50 (NRAS Q61R): 100 to 1000 nM
IC50 (KRAS G12D): 1000 to 10000 nM
IC50 [2]: 100 to 1000 nM
IC50 [3]: 100 to 1000 nM
